{
  "source": "patent US20150118215A1",
  "about": "“Methods of Inhibiting Cell Proliferation” (The General Hospital Corporation, priority 2012, published 2015)",
  "key": {"[1]": {"test_system": "gefitinib-resistant NSCLC A549 cells", "conditions": "Bill et al. 2012; cited from earlier work"}, "[2]": {"test_system": "gefitinib-resistant NSCLC H460 cells", "conditions": "Bill et al. 2012; cited from earlier work"}, "[3]": {"test_system": "EGFR/ErbB-signaling", "conditions": "SecinH3 or cytohesin-2 knock-down; Bill et al.; cited from earlier work"}, "[4]": {"target": "T1, cytohesin-2 (Homo sapiens, UniProt Q99418)", "T1 construct": "steady-state enzymatic GEF-activity analysis of full-length cytohesin-2 or Sec7 domain with Arf1 and Arf6; made in house; host or cells: E. coli BL21DE3", "T1 sequence (Q99418 1-400)": "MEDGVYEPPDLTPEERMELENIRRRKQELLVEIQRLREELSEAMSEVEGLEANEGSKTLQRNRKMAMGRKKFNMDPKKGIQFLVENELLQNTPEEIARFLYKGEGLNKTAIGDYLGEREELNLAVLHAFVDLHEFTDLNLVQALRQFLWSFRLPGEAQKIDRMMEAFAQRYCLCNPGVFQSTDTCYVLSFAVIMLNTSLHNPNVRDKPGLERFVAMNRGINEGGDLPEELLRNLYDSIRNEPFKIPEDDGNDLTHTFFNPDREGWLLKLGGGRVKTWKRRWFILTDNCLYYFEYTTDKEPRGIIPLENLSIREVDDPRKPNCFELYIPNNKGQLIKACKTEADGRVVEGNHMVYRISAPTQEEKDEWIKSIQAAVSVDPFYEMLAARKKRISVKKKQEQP", "experiment": "Radiolabel-based GEF-activity assay ([35S]-GTPγS binding) of full-length cytohesin-2 with myr-Arf1 or myr-Arf6", "type": "biochemical", "description": "Two assays were used to determine the GDP/GTP-exchange activity of both full-length cytohesin-2 and Sec7 domain.\na) Radiolabel-Based Assay.\nThe lipids were dissolved in chloroform. […] Proteins were trapped on nitrocellulose filters.\nTo test the potential signaling between V-ATPase and cytohesin-2/Arf GTP-binding proteins, a GEF-activity assay was established for cytohesin-2 (wt) and myristoylated myr-Arf6 (wt) and myr-Arf1 (wt) GTP-binding proteins (FIG. 2A). Human Arf1 was co-expressed with yeast N-myristoyltransferase in E. coli BL21/DE3 strain. Recombinant myr-Arf1 was purified from the E. coli lysate (A1) using an AKTApurifier equipped with HiTrapQ, Superdex200 columns (A2), and Phenyl Sepharose HP column (A3). Human Arf6 was also co-expressed with yeast N-myristoyltransferase in E. coli BL21/DE3 strain. Recombinant myr-Arf6 was extracted from insoluble fraction using Triton X-100 (B1). The extract was precipitated by 35% ammonium sulfate and myr-Arf6 purified with HiTrapQ column (B2). […] Several soluble, cell permeable and fluorescently labeled a2N1-17 derived peptides were synthesized, which were used in the current GEF-activity and structural studies in vitro."}, "[5]": {"test_system": "PC-9 xenografts", "conditions": "Bill et al.; cited from earlier work"}, "[6]": {"test_system": "lung cancer cells", "conditions": "SecinH3 or cytohesin-2 knock-down; Bill et al.; cited from earlier work"}, "[7]": {"test_system": "H460 xenografts", "conditions": "Bill et al.; cited from earlier work"}, "[8]": {"test_system": "Human NSCLC A549 cells", "experiment": "Cell proliferation assays (MTT, direct cell counting)", "type": "cell-based", "conditions": "A549, wild-type EGFR, KRas-G12S; three days treatment", "description": "Cell Proliferation Assays—\nFirst, MTT proliferation assay was carried out using cell growth determination kit according to manufacturer instructions (Sigma). Human NSCLC A549 cells which are expressing wild-type EGFR with KRas-G12S activation mutation were studied in these experiments. […] Medium was changed daily for three days, and cells were stained with MTT and DAPI when indicated.\nSecond, direct cells counting assays were also performed as follows. Microscopic images of 0.317 mm^2 area each well were acquired for MTT stained cells and cells were counted using ImageJ (NIH). […] Alternatively, the cells were stained with DAPI and microscopic images of whole wells were acquired using DeltaVision system (Applied Precision). Cells were counted using Particle Tracker PlugIn for ImageJ as above (FIG. 13)."}, "[9]": {"target": "T2, Sec7 domain of cytohesin-2 (Homo sapiens, UniProt Q99418)", "T2 construct": "The Sec7 domain of human cytohesin-2 (61-252aa) was expressed in BL21/DE3 cells; GST (N, cleaved yes); made in house; host or cells: E. coli BL21/DE3", "T2 sequence (Q99418 61-252)": "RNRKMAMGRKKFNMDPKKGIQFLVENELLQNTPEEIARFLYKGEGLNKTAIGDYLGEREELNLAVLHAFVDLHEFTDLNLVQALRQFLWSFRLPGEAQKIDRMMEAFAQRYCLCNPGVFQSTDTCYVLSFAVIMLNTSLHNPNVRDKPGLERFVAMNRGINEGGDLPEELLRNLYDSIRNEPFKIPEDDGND", "experiment": "Tryptophan fluorescence-based GTPγS binding (GEF-activity) assay of Sec7 domain", "type": "biochemical", "conditions": "purified Sec7 domain; truncated [Δ17]Arf1 as substrate; read-out: IC50, inhibition of enzymatic GEF-activity of Sec7 with [Δ17]Arf1", "text": "b) Tryptophan Fluorescence-Based GTPγS Binding Assay.\nIn this assay, exchange is followed in real time. […] These are soluble in both GDP and GTP bound forms (myr Arf-GTP requires a hydrophobic surface for stability) allowing exchange to occur in the absence of lipid or detergent, which is desirable because lipid or detergent can scatter light and possibly confound interpretation of changes in fluorescence. To monitor tryptophan fluorescence, the fluorescent spectra of [Δ17]Arf1 in GDP-bound and GTPγS-bound forms were obtained at an excitation wavelength of 285 nm using a PTI spectrofluorimeter. […] Measurements were performed at 37° C. in 50 mM HEPES-KOH, 100 mM KCl, 1 mM MgCl2, 1 mM DTT, 10 μM GTPγS, 1 μM [Δ17]Arf1 or [Δ13]Arf6 and 10 nM Sec7-domain. […] Data were fitted by single exponential curve and analyzed using Microsoft Excel.\nThis assay allows real-time measurements of the GEF Sec7 domain-induced nucleotide exchange. [Δ17]Arf1 and [Δ13]Arf6, which are soluble in the GTP-bound form, were used as substrates, thereby eliminating the need for phospholipid or detergent in the assay. […] Activation of [Δ17]Arf1 or [Δ13]Arf6 from the GDP-bound form to the GTPγS-bound form was monitored by tryptophan fluorescence (emission/excitation wavelengths of 285/335 nm) (FIG. 3A)."}, "[10]": {"test_system": "tumor xenografts", "conditions": "SecinH3 or cytohesin-2 knock-down; Bill et al.; cited from earlier work"}},
  "note": "Like-named read-outs stand apart in the source and are kept apart here.",
  "data": [
    {"smiles": "COc1nc(-c2ccc3c(c2)OCO3)n(-c2ccc(NC(=O)CSc3ccccc3)cc2)n1", "note": "[SecinH3]", "values": [
      {"measurement": "proliferation of gefitinib-resistant NSCLC A549 cells", "setting": "[1]", "value": "efficiently reduced"},
      {"measurement": "proliferation of gefitinib-resistant NSCLC H460 cells", "setting": "[2]", "value": "efficiently reduced"},
      {"measurement": "EGFR/ErbB-signaling", "setting": "[3]", "value": "reduction"},
      {"measurement": "IC50", "setting": "[4]; myr-Arf1 as substrate, azolectin, read-out: IC50, inhibition of enzymatic GEF-activity of cytohesin-2 with myr-Arf1", "value": "> 150", "unit": "µM"},
      {"measurement": "IC50", "setting": "[4]; myr-Arf6 as substrate, PIP2-containing liposomes, read-out: IC50, inhibition of enzymatic GEF-activity of cytohesin-2 with myr-Arf6", "value": "> 150", "unit": "µM"},
      {"measurement": "action in vivo in mice bearing PC-9 xenografts", "setting": "[5]", "value": "anti-proliferative and pro-apoptotic action"},
      {"measurement": "cancer cell proliferation in vitro", "setting": "[6]", "value": "suppression"},
      {"measurement": "action in vivo in mice bearing H460 xenografts", "setting": "[7]", "value": "anti-proliferative and pro-apoptotic action"},
      {"measurement": "inhibition of proliferation of human lung cancer A549 cells", "setting": "[8]", "value": "anti-proliferative action"},
      {"measurement": "IC50", "setting": "[9]", "value": 6.9, "unit": "µM"},
      {"measurement": "growth of tumor xenografts in nude mice model in vivo", "setting": "[10]", "value": "reduction of growth"}
    ]}
  ]
}
